Assay results reported in US10487081B2, “Guanidine substituted imidazo[4,5-c] ring compounds” (3M INNOVATIVE PROPERTIES COMPANY, priority 2015, dated 2019).
Counter-ions that a name gives are not always drawn. Like-named read-outs stand apart in the source and are kept apart here. Values belong to the compound of their own block, whether it stands above or below them.

Key:
[1] = test system: Human peripheral blood mononuclear cells (PBMC); experiment: Cytokine Induction in Human Cells; type: cell-based; conditions: 21-24 hrs culture, lowest concentration giving at least 2x negative control, tested 0.0001-10 micromolar
Protocol: Cytokine Induction in Human Cells
Whole blood was obtained from healthy human donors and collected by venipuncture into vacutainer tubes or syringes containing EDTA. Human peripheral blood mononuclear cells (PBMC) were purified from the whole blood by density gradient centrifugation. Histopaque 1077 (15 mL, Sigma, St. Louis, Mo.) was transferred to 6×50 mL sterile polypropylene conical tubes. The Histopaque was overlayed with 15-25 mL of blood diluted 1:2 in Hank's Balanced Salts Solution (HBSS) (Gibco, Life Technology, Grand Island N.Y.). The tubes were then centrifuged at 1370 rpm for 30 minutes at 20° C., with no brake (400×g, GH 3.8A Rotor).
The interface (buffy coat) containing the PBMC was collected and placed in a new sterile 50 mL conical polypropylene centrifuge tube. The PBMC were mixed with an equal volume of HBSS (about 20 mL from the interface and about 20 mL of HBSS), and then centrifuged at 1090 rpm, 10 min, 20° C., with brake (270×g, GH 3.8A Rotor). After completing centrifugation, the cells were resuspended in 2-3 mL ACK Red blood cell lysis buffer (ammonium chloride potassium solution, Gibco, Life Technology) and incubated for 2-5 minutes at 20° C. Next, HBSS (40 mL) was added to the cells, and the sample was centrifuged at 270×g for 10 min at 20° C. The supernatant was decanted, and the cell pellet was resuspended in 5 mL AIM V® Medium (Gibco, Life Technology). Cell aggregates and debris were removed by filtering the cell solution through a BD Falcon 70 micron nylon cell strainer (BD Biosciences, San Jose, Calif.).
The number of viable cells were determined by counting with a Miltenyi FACS instrument (Miltenyi Biotec Inc., San Diego, Calif.) or by using a hemacytometer. For determining cell viability with a hemacytometer, the cells were diluted 1/10 in 0.4% trypan blue and HBSS (specifically, 50 microliter of trypan blue+40 microliter of HBSS+10 microliter of cell solution were added to a microfuge tube and mixed). Ten microliters of the diluted cells were then applied to the hemacytometer, and the number of viable PBMC were determined by microscopy.
The PBMC sample was then resuspended in 96-well plates at a concentration of 8×10^5 cells/well in 0.1 mL of AIM-V medium. Each compound was solubilized in DMSO to create a 3 mM stock solution. The stock solution was then further diluted with AIM-V medium to prepare the serial dilutions. The diluted compound (100 microliters) was then transferred to the PBMCs to achieve final compound concentrations of 10, 1, 0.1, 0.01, 0.001, 0.0001 micromolar. The plates also had both positive and negative controls. The negative control wells contained only AIM-V medium with no example compound. The positive control wells contained imiquimod serially diluted to concentrations of 10, 1, 0.1, 0.01, 0.001, 0.0001 micromolar. The plates were then cultured at 37° C./5% CO2 for 21-24 hrs. Cell-free supernatants were harvested by centrifuging the 96-well plates at 2100 rpm, 23° C. for 10 minutes. Approximately 160 microliter of the supernatant was then stored in a NUNC 96-well plate, covered with the compression cap and stored at −80° C. until the cytokine analysis was done.
IFN-alpha cytokine levels (pg/mL) were measured by ELISA (human IFN-α, pan specific, Mabtech, Cincinnati, Ohio), IFN-gamma, TNF-alpha, and IP-10 cytokine levels (pg/mL) were measured by multiplex bead assay (magnetic beads, R & D Systems Minneapolis, Minn.) according to the manufacturer's instructions.
Specifically, the minimum effective concentration of each compound (micromolar) was determined as the lowest concentration of the compound that induced a measured cytokine response at a level ([…]) that was at least 2× greater than that observed with the negative control wells.

[2] = ELISA, read-out: MEC to Induce Cytokine IFN-alpha
[3] = multiplex bead assay, read-out: MEC to Induce Cytokine TNF-alpha

SMILES: COCCc1nc2c(N)nc3ccccc3c2n1CC(C)(C)CNC(=N)N [Example 8, 1-[3-[4-amino-2-(2-methoxyethyl)imidazo[4,5-c]quinolin-1-yl]-2,2-dimethyl-propyl]guanidine hydrochloride]
- minimal effective concentration [1, 2]: 0.1 µM
- MEC to Induce Cytokine IFN-gamma ([1]; multiplex bead assay): 0.1 µM
- MEC to Induce Cytokine IP-10 ([1]; multiplex bead assay): 0.01 µM
- minimal effective concentration [1, 3]: 0.1 µM

SMILES: CCc1nc2c(N)nc3ccccc3c2n1CCCCNC(=N)N [Example 2, 1-[4-(4-amino-2-ethyl-imidazo[4,5-c]quinolin-1-yl)butyl]guanidine hydrochloride]
- minimal effective concentration [1, 2]: 0.1 µM
- MEC to Induce Cytokine IP-10 ([1]; multiplex bead assay): 0.1 µM
- minimal effective concentration [1, 3]: 0.1 µM

- melting point: 237 to 238 °C
SMILES: CCCCc1nc2c(N)nc3ccccc3c2n1CCCCNC(=N)N (as salt: hydrochloride) [Example 4, 1-[4-(4-amino-2-butyl-imidazo[4,5-c]quinolin-1-yl)butyl]guanidine hydrochloride]

- melting point: 246 to 250 °C
SMILES: COCCc1nc2c(N)nc3ccccc3c2n1CC(C)(C)CNC(=N)N (as salt: hydrochloride) [Example 8, 1-[3-[4-amino-2-(2-methoxyethyl)imidazo[4,5-c]quinolin-1-yl]-2,2-dimethyl-propyl]guanidine hydrochloride]

- melting point: 178 to 180 °C
SMILES: CCCCCc1nc2c(N)nc3c(c2n1CCCCNC(=N)N)CCCC3 (as salt: hydrochloride) [Example 7, 1-[4-(4-amino-2-pentyl-6,7,8,9-tetrahydroimidazo[4,5-c]quinolin-1-yl)butyl]guanidine hydrochloride]

- melting point: 234 to 244 °C
SMILES: Cc1nc2c(N)nc3ccccc3c2n1CCCCNC(=N)N (as salt: hydrochloride) [Example 1, 1-[4-(4-amino-2-methyl-imidazo[4,5-c]quinolin-1-yl)butyl]guanidine dihydrochloride]

SMILES: CCCCCc1nc2c(N)nc3c(c2n1CCCCNC(=N)N)CCCC3 [Example 7, 1-[4-(4-amino-2-pentyl-6,7,8,9-tetrahydroimidazo[4,5-c]quinolin-1-yl)butyl]guanidine hydrochloride]
- minimal effective concentration [1, 2]: 1 µM
- MEC to Induce Cytokine IFN-gamma ([1]; multiplex bead assay): >10 µM
- MEC to Induce Cytokine IP-10 ([1]; multiplex bead assay): 0.1 µM
- minimal effective concentration [1, 3]: 1 µM

- melting point: 156 to 158 °C
SMILES: CCCc1nc2c(N)nc3ccccc3c2n1CCCCNC(=N)N (as salt: hydrochloride) [Example 3, 1-[4-(4-amino-2-propyl-imidazo[4,5-c]quinolin-1-yl)butyl]guanidine hydrochloride]

SMILES: Cc1nc2c(N)nc3ccccc3c2n1CCCCNC(=N)N [Example 1, 1-[4-(4-amino-2-methyl-imidazo[4,5-c]quinolin-1-yl)butyl]guanidine dihydrochloride]
- minimal effective concentration [1, 2]: 1 µM
- minimal effective concentration [1, 3]: 0.001 µM

SMILES: CCCCc1nc2c(N)nc3ccccc3c2n1CCCCNC(=N)N [Example 4, 1-[4-(4-amino-2-butyl-imidazo[4,5-c]quinolin-1-yl)butyl]guanidine hydrochloride]
- minimal effective concentration [1, 2]: 0.01 µM
- MEC to Induce Cytokine IFN-gamma ([1]; multiplex bead assay): 0.1 µM
- MEC to Induce Cytokine IP-10 ([1]; multiplex bead assay): 0.01 µM
- minimal effective concentration [1, 3]: 0.01 µM

SMILES: CCCc1nc2c(N)nc3ccccc3c2n1CCCCNC(=N)N [Example 3, 1-[4-(4-amino-2-propyl-imidazo[4,5-c]quinolin-1-yl)butyl]guanidine hydrochloride]
- minimal effective concentration [1, 2]: 0.1 µM
- MEC to Induce Cytokine IFN-gamma ([1]; multiplex bead assay): >10 µM
- minimal effective concentration [1, 3]: 0.1 µM

SMILES: CC(C)Cn1cnc2c(N)nc3ccccc3c21 [imiquimod, reference compound]
- minimal effective concentration [1, 2]: 10 µM
- MEC to Induce Cytokine IFN-gamma ([1]; multiplex bead assay): 10 µM
- MEC to Induce Cytokine IP-10 ([1]; multiplex bead assay): 10 µM
- minimal effective concentration [1, 3]: 10 µM

SMILES: COCCc1nc2c(N)nc3ccccc3c2n1CCOCCNC(=N)N [Example 6, 1-[2-[2-[4-amino-2-(2-methoxyethyl)imidazo[4,5-c]quinolin-1-yl]ethoxy]ethyl]guanidine dihydrochloride]
- minimal effective concentration [1, 2]: 0.01 µM
- MEC to Induce Cytokine IFN-gamma ([1]; multiplex bead assay): 0.01 µM
- MEC to Induce Cytokine IP-10 ([1]; multiplex bead assay): 0.01 µM
- minimal effective concentration [1, 3]: 0.01 µM

SMILES: CCCCc1nc2c(N)nc3ccccc3c2n1CCOCCNC(=N)N [Example 5, 1-[2-[2-(4-amino-2-butyl-imidazo[4,5-c]quinolin-1-yl)ethoxy]ethyl]guanidine dihydrochloride]
- minimal effective concentration [1, 2]: 0.01 µM
- MEC to Induce Cytokine IFN-gamma ([1]; multiplex bead assay): 0.01 µM
- MEC to Induce Cytokine IP-10 ([1]; multiplex bead assay): 0.001 µM
- minimal effective concentration [1, 3]: 0.001 µM

- melting point: 188 to 192 °C
SMILES: COCCc1nc2c(N)nc3ccccc3c2n1CCOCCNC(=N)N (as salt: hydrochloride) [Example 6, 1-[2-[2-[4-amino-2-(2-methoxyethyl)imidazo[4,5-c]quinolin-1-yl]ethoxy]ethyl]guanidine dihydrochloride]
